Tests used:
[1] = tested on: hairless mice; assay: Skin surface pH after topical treatment or buffer exposure; type: in vivo, hairless mice (Skh1/Hr)
Protocol: (§2) The mice were anesthetized with chloral hydrate (Morton Grove Pharmaceuticals, Morton Grove, Ill., USA). After 3 hours immersion at 37° C., the mice were removed, and the remaining buffer was gently blotted off. After 15 minutes, barrier function was determined by measurement of transepidermal water loss(TEWL) with an electrolytic water analyzer (MEECO®, Warrington, Pa.). Surface pH was measured with a flat, glass surface electrode from Mettler-Toledo (Giessen, Germany), attached to a pH meter (Skin pH Meter PH 900, Courage& Khazaka, Cologne, Germany). Individually tested sites were covered with Hilltop Chambers (HtC, nominal volume 200 mL), which were reapplied following each indvidual measurement.

[2] = molecular target: T1, NHE1 antiporter (Homo sapiens, UniProt P19634); assay: Intracellular pH (BCECF) and recovery from acid load in cultured human keratinocytes; type: cell-based
T1 construct: endogenous in cells; host or cells: cultured human keratinocytes (CHK)
Protocol: Assessment of Intracellular pH: Keratinocytes were plated on glass coverslips and grown in Cascade 154 medium containing 0.07 mM Ca^2+. The coverslips were incubated in 145 μM BCECF-AM ester at room temperature for 5 minutes, then rinsed for 30 minutes in buffer containing either 28 mM HEPES, 136 mM NaCl, 5 mM KCl, 0.07 mM CaCl2 and 10 mM glucose, pH 7.4 or Ringer solution (136 mM NaCl, 5 mM KCl, 0.03 mM Ca2+, 28 mM TES, 14 mM Na HCO3, NaOH to adjust the pH to 7.4, and 10 mM glucose (pH 7.4, 330 mOsm)). BCECF-AM-ester is membrane permeable; once inside cells it is de esterified by endogenous […], trapping flourescently-active, acidic BCECF inside the cells. The BCECF-loaded cells were placed in a superfusion chamber mounted on a inverted microscope (Nikon). The keratinocytes were superfused with one of the two solutions, and baseline intracellular pH was monitored constantly using a ratiometric method (Paradiio et al (1987) Am J. Physiol. 253:C30-6). […] The resultant fluorescence (at 530 nm) from each stimulating wavelength was measured with a CCD camera (Hamamatsu) digitally ratioed, and stored using a software program (Fluor, Universal Imaging Co., West Chester, Pa.). Whereas fluorescence emission at 440 nm excitation remains constant, indicative of dye concentration, emission from 490 nm varies proportionally with changes of intracellular pH. […]

[3] = tested on: hairless mice; assay: Barrier recovery (TEWL) after tape-stripping; conditions: for barrier recovery after tape-stripping: NHE1 inhibitors, general statement
Protocol: Permeability Barrier Studies: Normal hairless mice were treated topically twice a daily for three days with BPB (4 mg/mL) or MJ33 (4 mg/mL) both in propylene glycol:ethanol (7:3 v/v) vehicle, or the vehicle alone on an area of 5-6 cm on the backs and flanks as described previously (Mao-Qiang, M., et al., J. Lipid Res. 36:1926-35 (1995)). […] The acidification experiments were performed with 10 mM HEPES-buffer, adjusted to either pH 5.5 or pH 7.4 as follows: One flank of anesthetized mice was immersed on a mesh netting, as described previously (Lee, S. H., et al., J. Clin. Invest. 89:530-8 (1992)). The mice were anesthetized with chloral hydrate (Morton Grove Pharmaceuticals, Morton Grove, Ill., USA). After 3 hours immersion at 37° C., the mice were removed, and the remaining buffer was gently blotted off. After 15 minutes, barrier function was determined by measurement of transepidermal water loss(TEWL) with an electrolytic water analyzer (MEECO®, Warrington, Pa.). […] Individually tested sites were covered with Hilltop Chambers (HtC, nominal volume 200 mL), which were reapplied following each indvidual measurement.
(§3) The stratum corneum was removed by several strippings with adhesive tape (Tesatape, Beiersdorf, Germany) inducing an increase in TEWL levels above baseline (from 2-5 to approximately 10-15 g/m^2/h). Two sites were prepared on each animal, and TEWL and surface pH were measured at 0, 2, 5 and 24 hrs following the stripping and the applications of inhibitors.
Hairless mice were tape stripped to TEWL of 7-9 g/m^2/h. […] Control areas were covered with Hilltop Chambers containing 10 mM HEPES buffer adjusted to pH 7.4 or pH 5.5 as appropriate. TEWL was measured at 0, 2, 5, and 24 hours post tape-strip. The results are reported as percent barrier recovery from the initial induced defect.

[4] = tested on: hairless mice; assay: Stratum corneum integrity: TEWL after sequential tape strippings; type: in vivo, hairless mice (Skh1/Hr)
Protocol: After 15 minutes, barrier function was determined by measurement of transepidermal water loss(TEWL) with an electrolytic water analyzer (MEECO®, Warrington, Pa.). […] Individually tested sites were covered with Hilltop Chambers (HtC, nominal volume 200 mL), which were reapplied following each indvidual measurement.
as §3

[5] = tested on: hairless mice; assay: Stratum corneum cohesion: protein removed per D-Squame stripping; type: in vivo, hairless mice (Skh1/Hr)
Protocol: Before stripping the stratum corneum, the skin surface was cleaned with a single ethanol wipe. D-Squame tapes then were placed sequentially to the test areas for about 3 sec each, removed with forceps, and stored in glass scintillation vials at 5° C.
The amount of protein removed per D-Squame was measured, by a modification of the method of Dreher, F., et al., Acta Derm. […] The protein content per stripping was determined with the Bio-Rad protein assay kit. […] Each tape was incubated with 1 M NaOH for 1 hour at 37° C. in an incubator shaker at 80 rpm, and neutralized thereafter with 1 mL of 1 M HCl in the scintillation vials. Subsequently, 0.2 mL of this solution was incubated in 0.6 ml distilled water plus 0.2 mL of the Bio-Rad protein dye for 5 minutes in borosililate tubes. […] An empty D-Squame tape, as well as distilled water incubated with Bio-Rad dye, served as negative controls. The amount of calculated protein was then normalized to skin surface area (μg/cm^2).

[6] = tested on: hairless mice; assay: Permeability barrier function by transepidermal water loss (TEWL); type: in vivo, hairless mice (Skh1/Hr)
Protocol: as §2

[7] = tested on: murine skin; assay: Desmosome density and desmoglein-1 staining in lower stratum corneum; type: in vivo, mouse; conditions: for density of desmosomes in the lower stratum corneum and at the stratum corneum-stratum granulosum interface: inhibitor-treated vs vehicle sites
Excerpt: (§1) Ultrastructural methods: Freshly obtained biopsies from mouse skin were fixed directly in modified Karnovsky's fixative, postfixed with reduced osmium tetroxide (OSO4) and then imbedded in an Epon-epoxy mixture. For visualization of lipid-enriched, lamellar bilayer structures, some samples were post fixed in ruthenium tetroxide (RuO4). Sections were cut on a Reichert Ultracut E microtome, counterstained with uranyl acetate and lead citrate, and viewed in a Zeiss 10 CR electron microscope, operated at 60 kV.
Immunofluorescence Staining: Hairless mouse skin was excised with a 6 mm punch biopsy, and the subcutaneous fat was removed. Tissue sections were incubated for 1 hour in blocking buffer (1% bovine serum albumin, 0.1% cold water fish gelatin in phosphate buffered saline (PBS)), and were then incubated for 1 hour further at room temperature with 1:500 dilution of polyclonal rabbit anti-mouse desmoglein 1 antibody (gift of Dr. John Stanley, University of Pennsylvania) diluted in blocking buffer. The tissue was then washed with blocking buffer and incubated one hour at room temperature with fluoroscein, isothiocyanate-conjugated, goat anti-rabbit IgG antibody (DAKO, Carpinteria, Calif., USA), diluted in blocking buffer. Either preincubation of DSG 1 antibody with DSG 1-recombinant protein (gift of Dr. Masayuki Amagai, Keio University, Tokyo, Japan), or omission of the DSG 1 primary antibody eliminated specific staining.

[8] = tested on: murine skin; conditions: 4 mg/mL topical, shown previously; cited from earlier work
[9] = tested on: murine skin; assay: Stratum corneum pH after tape-stripping with buffers and NHE1 inhibitors; type: in vivo, mouse
Protocol: The acidification experiments were performed with 10 mM HEPES-buffer, adjusted to either pH 5.5 or pH 7.4 as follows: One flank of anesthetized mice was immersed on a mesh netting, as described previously (Lee, S. H., et al., J. Clin. Invest. 89:530-8 (1992)). […] After 3 hours immersion at 37° C., the mice were removed, and the remaining buffer was gently blotted off. After 15 minutes, barrier function was determined by measurement of transepidermal water loss(TEWL) with an electrolytic water analyzer (MEECO®, Warrington, Pa.). Surface pH was measured with a flat, glass surface electrode from Mettler-Toledo (Giessen, Germany), attached to a pH meter (Skin pH Meter PH 900, Courage& Khazaka, Cologne, Germany). Individually tested sites were covered with Hilltop Chambers (HtC, nominal volume 200 mL), which were reapplied following each indvidual measurement.
as §3

[10] = tested on: mouse skin; assay: Electron microscopy of lamellar bodies and extracellular lipid processing; type: in vivo
Excerpt: as §1

[11] = fatty acid co-applied with BPB, three days
[12] = five hours post tape-strip, in pH 7.4 buffer, buffer alone 38%
[13] = two hours post tape-strip, in pH 7.4 buffer, buffer alone 21%
[14] = fifth strip, fatty acid co-applied with BPB

T1 sequence (P19634 whole entry): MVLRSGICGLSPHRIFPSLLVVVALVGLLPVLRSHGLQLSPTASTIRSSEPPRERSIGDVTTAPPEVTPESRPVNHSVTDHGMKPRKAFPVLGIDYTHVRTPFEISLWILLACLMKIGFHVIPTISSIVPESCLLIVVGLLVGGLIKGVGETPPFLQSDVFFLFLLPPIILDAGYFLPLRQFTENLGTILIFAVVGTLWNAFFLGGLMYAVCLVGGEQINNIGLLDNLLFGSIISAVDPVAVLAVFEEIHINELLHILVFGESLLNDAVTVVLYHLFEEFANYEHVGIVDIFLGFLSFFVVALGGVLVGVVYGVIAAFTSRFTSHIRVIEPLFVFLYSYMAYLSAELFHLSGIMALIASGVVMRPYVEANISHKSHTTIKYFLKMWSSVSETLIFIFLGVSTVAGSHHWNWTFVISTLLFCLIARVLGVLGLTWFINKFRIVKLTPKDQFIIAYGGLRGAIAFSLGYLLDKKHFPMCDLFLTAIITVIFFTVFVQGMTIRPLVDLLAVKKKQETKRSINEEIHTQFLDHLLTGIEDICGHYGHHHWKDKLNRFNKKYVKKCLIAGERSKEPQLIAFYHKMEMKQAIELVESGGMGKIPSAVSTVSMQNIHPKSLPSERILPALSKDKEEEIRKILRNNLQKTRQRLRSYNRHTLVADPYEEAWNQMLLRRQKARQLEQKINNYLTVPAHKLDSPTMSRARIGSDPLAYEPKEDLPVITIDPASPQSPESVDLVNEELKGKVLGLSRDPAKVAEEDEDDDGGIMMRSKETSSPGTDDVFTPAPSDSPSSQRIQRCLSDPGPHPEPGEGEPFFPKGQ

## CCCCC/C=C\C/C=C\CCCCCCCC(=O)O [linoleic acid]
[1]; [11]
  pH of the stratum corneum: 5.77+/−0.10

## N=C(N)NC(=O)c1nc(Cl)c(N)nc1N [amiloride, N-Amido-3,5-diamino-6-chloropyrazinecarboxamide]
[2]; FIG. 1 (D), recovery from acid load after wash out
  effect after wash out period: non-permanent, non-toxic effect
[3]
  barrier recovery after tape-stripping: delayed barrier recovery
[3]; [12]
  percent barrier recovery (TEWL rate less than initial induced rate): about 25%
[3]; [13]
  percent barrier recovery (TEWL rate less than initial induced rate): about 12%

## CCCCCCCCCCCCCCCCCC(=O)O [stearic acid]
[1]; [11]
  pH of the stratum corneum: 5.73+/−0.09
[4]; [14]
  TEWL after tape strips: about 25 g/m^2/h
[5]; [14]
  protein lost: about 25 μg protein/cm^2

## CCCCCCCCCCCCCCCC(=O)O [palmitic acid]
[1]; [11]
  pH of the stratum corneum: 5.40+/−0.14
[4]; [14]
  TEWL after tape strips: 55-60 g/m^2/h
[4]; three sequential tape-strippings, fatty acid co-applied with MJ33
  TEWL after tape strips: 30-35 g/m^2/h
[5]; [14]
  protein lost: about 40 μg protein/cm^2
[5]; three strippings, fatty acid co-applied with MJ33
  protein lost: about 30 μg/cm^2

## CCCCCCCCCCCCCCCCOCC(COCC(F)(F)F)OP(=O)(O)OC (centres unmarked) [MJ33, 1-Hexadecyl-3-triflouroethylglycero-sn-2-phosphomethanol]
[1]; MJ33 4 mg/mL vs vehicle alone (5.60)
  stratum corneum surface pH: 5.87+/−0.06
[6]; by day three, vs vehicle
  fold increase in TEWL rates: 2-3 fold
[6]; day three, repeated applications, vehicle 2.97
  TEWL rates: 5.19+/−.81
[4]; day 3, after three consecutive tape strippings (Example 1)
  TEWL after tape strippings: ~75 g/m^2/hr
[4]; three sequential tape-strippings, MJ33 alone (Example 5)
  TEWL after tape strips: ~75 g/m^2/h
[5]; day 3, after three consecutive tape-strippings (Example 1)
  protein lost: over 50 μg protein/cm^2
[5]; three sequential strippings, MJ33 alone (Example 5)
  protein lost: about 50 μg protein/cm^2
[7]
  density of desmosomes in the lower stratum corneum and at the stratum corneum-stratum granulosum interface: dramatic reduction
[8]
  toxicity of the doses employed: non-toxic

## CS(=O)(=O)c1cc(C(=O)NC(=N)N)ccc1N1CCCCC1 [HOE694, 3-methylsulfonyl-4-piperidino-benzoylguanidinemethanesulfonate]
[2]; 1.5 μM for 16 hours, from pH 7.05
  intracellular pH: 6.90 pH
[9]; 2 hours post-tape-strip, pH 5.5 HEPES buffer
  stratum corneum pH relative to initial post-tape-strip value: more than 0.1 pH units
[9]; 5 hours post-tape-strip, pH 5.5 HEPES buffer
  stratum corneum pH relative to initial post-tape-strip value: more than 0.05 pH units
[9]; five hours post-tape-strip, pH 7.4 buffer
  stratum corneum pH relative to initial post-tape-strip value: persisted and even increased
[9]; in pH 5.5 buffer, vs pH 5.5 buffer alone
  initial post-tape-strip pH value: increased significantly
[9]; two hours post-tape-strip, in pH 7.4 buffer
  stratum corneum pH above that of skin exposed to pH 7.4 buffer alone: ~0.05 pH units
[9]; two hours post-tape-strip, pH 7.4 buffer
  stratum corneum pH increase over initial post-tape-strip value: > 0.1 pH units
[10]; in pH 5.5 buffer
  lamellar body formation and extracellular processing of secreted lipids: appeared normal
[10]; in pH 7.4 buffer
  extracellular processing of secreted lipids: defective
  lamellar body formation and secretion: undisturbed
[3]; 2 hours post tape-strip, in pH 5.5 buffer, buffer alone 28%
  percent barrier recovery (TEWL rate less than initial induced rate): 25%
[3]; 5 hours post tape-strip, in pH 5.5 buffer
  percent barrier recovery (TEWL rate less than initial induced rate): 38%
[3]; 24 hours post tape-strip, in pH 5.5 buffer
  percent barrier recovery (TEWL rate less than initial induced rate): 75%
[3]; 24 hours post tape-strip, in pH 7.4 buffer, buffer alone 75%
  percent barrier recovery (TEWL rate less than initial induced rate): about 45%
[3]
  barrier recovery after tape-stripping: delayed barrier recovery
[3]; [12]
  percent barrier recovery (TEWL rate less than initial induced rate): 23%
[3]; [13]
  percent barrier recovery (TEWL rate less than initial induced rate): about 12%

## O=C(CBr)c1ccc(Br)cc1 [BPB, bromphenacyl bromide]
[1]; BPB alone, comparison with LA co-application
  pH of the stratum corneum: 6.28+/−0.1
[1]; BPB alone, comparison with PA co-application
  pH of the stratum corneum: 5.92+/−0.05
[1]; BPB alone, comparison with SA co-application
  pH of the stratum corneum: 6.17+/−0.08
[1]; BPB three days, before buffer
  surface pH of BPB treated sites before buffer exposure: ~5.95 pH
[1]; BPB three days, then neutral buffer (pH 7.4) three hours
  surface pH: ~6.41 pH
[1]; after one day, 4 mg/mL topical twice daily
  pH of the skin: ~6.0 pH
[1]; day 3, 4 mg/mL topical twice daily
  average pH of treated sites: ~6.4 pH
[6]; BPB three days, before neutral buffer
  TEWL before buffer exposure: about 10 g/m^2/h
[6]; BPB three days, then acidic buffer three hours
  barrier function: remained unchanged
[6]; BPB three days, then neutral buffer three hours
  TEWL: about 18 g/m^2/h
[6]; day three of treatment
  TEWL: ~11 g/m^2/h
[6]; day two of treatment
  TEWL: ~6 g/m^2/h
[4]; BPB treated sites then acidic buffer, three sequential strippings
  TEWL after tape strippings: less than 30 g/m^2/h
[4]; BPB treated sites then neutral buffer, three sequential strippings
  TEWL after tape strippings: more than 60 g/m^2/h
[4]; fifth strip, BPB alone (Example 5)
  TEWL after tape strips: 80-100 g/m^2/ h
[4]; fifth strip, after three days of treatment (Example 1)
  TEWL after tape stripping: ~90 g/m^2/h
[4]; second strip, after three days of treatment
  TEWL after tape stripping: ~20 g/m^2/h
[5]; after five strips (Example 1)
  protein removed: 85-90 μg/cm^2
[5]; first strip, after three days of treatment
  protein removed per D-Squame stripping: about 20 μg/cm^2
[5]; five sequential tape-strippings, BPB alone (Example 5)
  protein lost: about 125 μg protein/cm^2
[7]
  density of desmosomes in the lower stratum corneum and at the stratum corneum-stratum granulosum interface: dramatic reduction
[7]; laser confocal microscopy, lower stratum corneum
  density of DSG1 positive clusters: decline dramatically
[8]
  toxicity of the doses employed: non-toxic
